Measurements reported in patent US20250230159A1, “FUSED HETEROCYCLIC COMPOUNDS AS MODULATORS OF RAS SIGNALLING” (Shenzhen Ionova Life Science Co., Ltd., priority 2022, published 2025).
Read-outs that look alike come from different tables or passages of the source.

Experiments:
[1] = target: KRAS-G12C/SOS1 interaction (Homo sapiens (Human), UniProt Q07889); test: Protein-Protein Interaction (PPI) assay, SOS1-KRAS binding assay kit (HTRF)
Description: This Example illustrates that exemplary compounds of the present invention blockade the interaction of SOS1 to KRAS protein.
The ability of a compound of Formula (I) to block the interaction of SOS1 to KRAS was measured using a SOS1-KRAS binding assay kit (CAT #63ADK000CB16PEG, Cisbio). Utilizing HTRF (Homogeneous Time-resolved Fluorescence) technology, the assay enables simple and rapid characterization of compound and antibody blockers in a high throughput format. The interaction between Tag1-SOS1 and Tag2-KRAS-G12C is detected by using anti-Tag1-Terbium antibody (HTRF donor) and anti-Tag2-XL665 antibody (HTRF acceptor). When the donor and acceptor antibodies are brought into close proximity due to SOS1 and KRAS-G12C binding, excitation of the donor antibody triggers fluorescent resonance energy transfer (FRET) towards the acceptor antibody, which in turn emits specifically at 665 nm. This specific signal is directly proportional to the extent of KRAS-G12C/SOS1 interaction.
The assay was carried according to the manufacturer's instructions. Compounds at an initial concentration of 10 mM in DMSO were first serially diluted on a 384-well plate using assay buffer at a ratio of 1:3 for a total of 9 concentrations with each of a volume of 20 μL. Blank buffer was included as the negative control. The final compound solution was in the buffer solution with 1% DMSO. Then, in each well of a 384-well plate, a solution of 2 μL compound solution, 4 μL tagged SOS1 and KRAS (G12C) protein stocks, respectively, and 10 μM GTP was incubated for 15 min. 10 μL mixture of […] antibody and anti-Tag1-Terbium antibody was introduced to each individual well. After 2 hours incubation at room temperature, fluorescence readout was measured with a Pelkin Elmer multiple plate reader VICTOR Nivo.
Excitation was from over a range of 245-395 nm, and emission from the donor (emission 1) was detected at […] and emission from the acceptor (emission 2) was detected at (606.5-623.5) nm. The HTRF ratio was calculated using the formula: (emission 1 @665 nm/emission 2 @620 nm)×10000. Thus, compounds blocking KRAS-G12C/SOS1 interaction will cause a reduction in HTRF signal ratio. The IC50 values were then calculated with the Graph pad Prism software.

pERK in Hela cells = test: Phospho-ERK (p-ERK) assay in Hela cells; format: cell-based; conditions: β-actin normalized
Description: This Example illustrates that exemplary compounds of the present invention prevent KRas-mediated GTP nucleotide exchange mediated by SOS1 to inhibit KRas activity, thereby inhibiting the generation of the downstream effector pERK.
Hela cells (23,000/w) were seeded in a black clear flat bottom 96-well cell culture plate (Corning, #3904) and incubated at 37° C. overnight. At day 2, cells were dosed with compounds of Formula (I) with a 10 μM starting concentration and serially diluted 3× for a total of 9 concentrations. The cells were incubated for 1 hour with the compounds solubilized in DMSO at 37° C. Cells were immediately fixed by adding 100 μL of 8% formaldehyde to all wells in a fume hood and the plates were incubated for 1 hr at room temperature. The formaldehyde was discarded from the plates and washed 5 times and each time for 5 min with 200 μL of Triton Washing Solution (0.1% Triton in PBS) each time to permeabilize the cells. Cells were then blocked with 150 μL of Odyssey blocking buffer (LI-COR Biosciences #927-50010) at room temperature on a shaker. The blocking buffer was discarded and 50 μL of primary antibodies pERK (cell signaling Technology #4370; Rabbit, 1:500) and β-actin (AF5001; Mouse, 1:2000) diluted in Odyssey blocking buffer was added. The plates were incubated overnight at 4° C. on a shaker.
On day 3, the primary antibody solution was removed. Each plate was washed 5× times with 200 μL of 1×PBST (PBS+0.1% Tween 20) and incubated with 50 μL of secondary antibodies: Anti-Rabbit (LI-COR Biosciences #926-32211) and Anti-Mouse (LI-COR Biosciences #68070) at 1:1000 dilution in Odyssey blocking buffer at room temperature on a shaker for 1 hour (protected from light). The secondary antibody solution as removed and each plate was washed with PBST 5× times. Any liquid remaining was discarded and the plate was imaged using the Licor Odyssey machine according to the manufacturer's instruction, using a set focus length at 3.5 mm and both 800 nm and 700 nm filters. The 3-actin normalized scan values for each well were divided by the average of vehicle wells to get the % of p-ERK inhibition. The IC50 values were then calculated with the Graph pad Prism software. In general, p-ERK IC50 data are in line with the PPI IC50 data.

[2] = Homo sapiens, Table 1, 1 hour with compound

Chain of KRAS-G12C/SOS1 interaction (Q07889 whole entry, stated change not applied): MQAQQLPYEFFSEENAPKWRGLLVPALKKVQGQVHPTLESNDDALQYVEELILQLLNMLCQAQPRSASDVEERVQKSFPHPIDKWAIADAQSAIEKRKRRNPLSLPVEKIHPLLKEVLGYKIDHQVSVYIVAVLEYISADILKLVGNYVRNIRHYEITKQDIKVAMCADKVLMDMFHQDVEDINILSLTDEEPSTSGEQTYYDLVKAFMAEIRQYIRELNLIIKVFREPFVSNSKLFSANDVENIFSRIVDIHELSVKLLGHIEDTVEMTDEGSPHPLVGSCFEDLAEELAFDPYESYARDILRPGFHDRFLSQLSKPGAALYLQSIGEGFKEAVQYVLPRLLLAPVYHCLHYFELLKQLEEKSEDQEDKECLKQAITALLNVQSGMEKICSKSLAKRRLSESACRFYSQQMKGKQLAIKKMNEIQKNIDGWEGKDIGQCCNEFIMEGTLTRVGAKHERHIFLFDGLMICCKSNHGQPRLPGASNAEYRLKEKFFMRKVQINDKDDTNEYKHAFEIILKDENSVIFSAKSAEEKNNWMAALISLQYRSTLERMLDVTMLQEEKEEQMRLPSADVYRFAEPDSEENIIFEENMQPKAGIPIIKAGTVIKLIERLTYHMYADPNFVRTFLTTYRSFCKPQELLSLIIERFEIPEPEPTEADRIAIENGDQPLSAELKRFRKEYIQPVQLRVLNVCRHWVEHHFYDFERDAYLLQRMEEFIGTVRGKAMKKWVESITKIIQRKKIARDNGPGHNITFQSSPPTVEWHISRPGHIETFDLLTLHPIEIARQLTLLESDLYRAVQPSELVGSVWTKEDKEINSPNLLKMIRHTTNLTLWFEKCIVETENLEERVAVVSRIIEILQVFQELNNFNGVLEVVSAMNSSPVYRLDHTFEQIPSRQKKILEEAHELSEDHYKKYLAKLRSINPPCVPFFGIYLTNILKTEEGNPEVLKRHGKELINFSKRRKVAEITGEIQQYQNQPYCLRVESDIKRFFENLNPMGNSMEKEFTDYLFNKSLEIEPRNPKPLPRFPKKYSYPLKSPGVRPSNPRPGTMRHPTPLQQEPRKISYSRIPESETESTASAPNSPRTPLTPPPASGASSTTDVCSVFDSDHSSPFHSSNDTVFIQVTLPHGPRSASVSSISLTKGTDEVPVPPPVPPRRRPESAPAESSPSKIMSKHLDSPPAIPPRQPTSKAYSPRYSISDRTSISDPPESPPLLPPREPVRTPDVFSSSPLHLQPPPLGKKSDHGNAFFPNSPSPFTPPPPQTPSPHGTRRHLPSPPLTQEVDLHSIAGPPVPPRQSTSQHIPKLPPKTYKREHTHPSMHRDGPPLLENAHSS

Row | Structure (SMILES) | IC50 ([1]; read-out: PPI Assay IC50) | IC50 (pERK in Hela cells; [2]) | also measured
1 | Cc1nc(N[C@H](C)c2cccc(C(F)F)c2F)c2cc(C(=O)N(C)C)c3nncn3c2n1 [Example 50, (R)-4-((1-(3-(difluoromethyl)-2-fluorophenyl)ethyl)amino)-N,N,2-trimethyl-[1,2,4]triazolo[4′,3′:1,6]pyrido[2,3-d]pyrimidine-6-carboxamide] | < 100 nM | > 100 nM | 
2 | Cc1nc(N[C@H](C)c2cccc(C(F)F)c2F)c2cc(C(=O)N3CC4(COC4)C3)c3nncn3c2n1 [Example 51] | < 100 nM | > 100 nM | 
3 | Cc1nc(N[C@H](C)c2cccc(C(F)F)c2F)c2cc(C(=O)N(C)C)c3nnnn3c2n1 [Example 55, (R)-6-((1-(3-(difluoromethyl)-2-fluorophenyl)ethyl)amino)-N,N,8-trimethyltetrazolo[1′,5′:1,6]pyrido[2,3-d]pyrimidine-4-carboxamide] | < 100 nM | > 100 nM | 
4 | Cc1nc(N[C@H](C)c2cccc(C(F)F)c2F)c2cc(C(=O)N3CCOCC3)c3nnnn3c2n1 [Example 58] | < 100 nM | < 100 nM | 
5 | Cc1nc(N[C@H](C)c2cccc(C(F)F)c2F)c2cc(C(=O)N3CCCC34CCOC4)c3nnnn3c2n1 (stereo partly shown) [Example 60] | < 100 nM | > 100 nM | 
6 | Cc1nc(N[C@H](C)c2cccc(C(F)F)c2F)c2cc(C(=O)N3CC4(COC4)C3)c3nnnn3c2n1 [Example 62] |  |  | IC50 ([1]; Table 1 (PPI IC50 < 100 nM), Tag1-SOS1 / Tag2-KRAS-G12C, HTRF, 10 μM GTP, read-out: PPI Assay IC50): < 100 nM; IC50 (pERK in Hela cells; Table 1, 1 hour with compound): > 100 nM
7 | Cc1nc(N[C@H](C)c2cccc(C(F)F)c2F)c2cc(C(=O)N3C4CC3CN(C)C4)c3nnnn3c2n1 [Example 66] | < 100 nM | > 100 nM | 
8 | CC(=O)N1CCC(c2cc3c(N[C@H](C)c4cccc(C(F)F)c4F)nc(C)nc3n3cnnc23)CC1 [Example 67, (R)-1-(4-(4-((1-(3-(difluoromethyl)-2-fluorophenyl)ethyl)amino)-2-methyl-[1,2,4]triazolo[4′,3′:1,6]pyrido[2,3-d]pyrimidin-6-yl)piperidin-1-yl)ethan-1-one] | < 100 nM | > 100 nM | 
9 | COCC(=O)N1CCC(c2cc3c(N[C@H](C)c4cccc(C(F)F)c4F)nc(C)nc3n3cnnc23)CC1 [Example 68] | < 100 nM | > 100 nM | 
10 | Cc1nc(N[C@H](C)c2cccc(C(F)F)c2F)c2cc(C3CCN(C(=O)N(C)C)CC3)c3nncn3c2n1 [Example 69] | < 100 nM | > 100 nM | 
11 | CCS(=O)(=O)N1CCC(c2cc3c(N[C@H](C)c4cccc(C(F)F)c4F)nc(C)nc3n3cnnc23)CC1 [Example 70] |  |  | IC50 [1]: > 100 nM; IC50 (pERK in Hela cells; Homo sapiens, Table 2, 1 hour with compound): > 100 nM
12 | Cc1nc(N[C@H](C)c2cccc(C(F)F)c2F)c2cc(C3CCN(CCS(C)(=O)=O)CC3)c3nncn3c2n1 [Example 71] | < 100 nM | > 100 nM | 
13 | Cc1nc(N[C@H](C)c2cccc(C(F)F)c2F)c2cc(N3CCOCC3)c3nncn3c2n1 [Example 74, (R)—N-(1-(3-(difluoromethyl)-2-fluorophenyl)ethyl)-2-methyl-6-morpholino-[1,2,4]triazolo[4′,3′:1,6]pyrido[2,3-d]pyrimidin-4-amine] | < 100 nM | > 100 nM | 
14 | Cc1nc(N[C@H](C)c2cccc(C(F)F)c2F)c2cc(N3CCS(=O)(=O)CC3)c3nncn3c2n1 [Example 76] | < 100 nM | > 100 nM | 
15 | C[C@@H](Nc1ncnc2c1cc(N1CCOCC1)c1nncn12)c1cccc(C(F)F)c1F [Example 79] | < 100 nM | < 100 nM | 
16 | Cc1nc(N[C@H](C)c2cc(N)cc(C(F)(F)F)c2)c2cc(N3CCOCC3)c3nncn3c2n1 [Example 85] | < 100 nM | < 100 nM | 

Row | Structure (SMILES) | IC50 ([1]; read-out: PPI Assay IC50) | IC50 (pERK in Hela cells; [2]) | also measured
17 | C[C@@H](Nc1ncnc2c1cc(N1CCOCC1=O)c1nncn12)c1cc(N)cc(C(F)(F)F)c1 [Example 86] | < 100 nM | < 100 nM | 
18 | C[C@@H](Nc1ncnc2c1cc(O[C@H]1CCOC1)c1nncn12)c1cccc(C(F)F)c1F [Example 88] | < 100 nM | < 100 nM | 
19 | Cc1nc(N[C@H](C)c2cccc(C(F)F)c2F)c2cc(N3CCOCC3)c3nnnn3c2n1 [Example 91, (R)—N-(1-(3-(difluoromethyl)-2-fluorophenyl)ethyl)-8-methyl-4-morpholinotetrazolo[1′,5′:1,6]pyrido[2,3-d]pyrimidin-6-amine] | < 100 nM | < 100 nM | 
20 | CC(=O)N1CCN(c2cc3c(N[C@H](C)c4cccc(C(F)F)c4F)nc(C)nc3n3nnnc23)CC1 [Example 92] | < 100 nM | < 100 nM | 
21 | Cc1nc(N[C@H](C)c2cccc(C(F)F)c2F)c2cc(N3CCS(=O)(=O)CC3)c3nnnn3c2n1 [Example 93] | < 100 nM | > 100 nM | 
22 | Cc1nc(N[C@H](C)c2cc(N)cc(C(F)(F)F)c2)c2cc(N3CCOCC3)c3nnnn3c2n1 [Example 95] | < 100 nM | < 100 nM | 
23 | C[C@@H](Nc1ncnc2c1cc(N1CCS(=O)(=O)CC1)c1nnnn12)c1cccc(C(F)F)c1F [Example 96] | < 100 nM | > 100 nM | 
24 | C[C@@H](Nc1ncnc2c1cc(N1CC(C(=O)N(C)C)C1)c1nnnn12)c1cccc(C(F)F)c1F [Example 97] | < 100 nM | > 100 nM | 
25 | C[C@@H](Nc1ncnc2c1cc(N1CCOCC1)c1nnnn12)c1cccc(C(F)F)c1F [Example 98] | < 100 nM | < 100 nM | 
26 | CC(=O)N1CCN(c2cc3c(N[C@H](C)c4cccc(C(F)F)c4F)ncnc3n3nnnc23)CC1 [Example 99] | < 100 nM | < 100 nM | 
27 | CC(=O)N1CC=C(c2cc3c(N[C@H](C)c4cccc(C(F)F)c4F)nc(C)nc3n3cnnc23)CC1 [Example 100, (R)-1-(4-(4-((1-(3-(difluoromethyl)-2-fluorophenyl)ethyl)amino)-2-methyl-[1,2,4]triazolo[4′,3′:1,6]pyrido[2,3-d]pyrimidin-6-yl)-3,6-dihydropyridin-1(2H)-yl)ethan-1-one] | < 100 nM | > 100 nM | 
28 | CC(=O)N1CC=C(c2cc3c(N[C@H](C)c4cccc(C(F)F)c4F)ncnc3n3cnnc23)CC1 [Example 101] | < 100 nM | < 100 nM | 
29 | CC(=O)N1CC=C(c2cc3c(N[C@H](C)c4cccc(C(F)F)c4F)nc(C)nc3n3nnnc23)CC1 [Example 105] | < 100 nM | < 100 nM | 
30 | CC(=O)N1CC=C(c2cc3c(N[C@H](C)c4cccc(C(F)F)c4F)ncnc3n3nnnc23)CC1 [Example 106] | < 100 nM | < 100 nM | 
31 | CC(=O)N1CCC(O)(c2cc3c(N[C@H](C)c4cccc(C(F)F)c4F)nc(C)nc3n3cnnc23)CC1 [Example 107, (R)-1-(4-(4-((1-(3-(difluoromethyl)-2-fluorophenyl)ethyl)amino)-2-methyl-[1,2,4]triazolo[4′,3′:1,6]pyrido[2,3-d]pyrimidin-6-yl)-4-hydroxypiperidin-1-yl)ethan-1-one] | < 100 nM | < 100 nM | 
32 | CC(=O)N1CCC(O)(c2cc3c(N[C@H](C)c4cccc(C(F)F)c4F)ncnc3n3cnnc23)CC1 [Example 108] | < 100 nM | < 100 nM | 
